In the supplement of paper PMC11451515:

Key:
[1] = test system: SEM cells; assay: cell viability relative to DMSO control; higher = less cytotoxic; conditions: 48 h
Procedure, shortened: (§1)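 Leukemia cells (NOMO1 or SEM, 500 cells/well; P12-Ichikawa, 1000 cells/well) were seeded in 5 μl in 1536-well plates after at least four passages of adaptation to each medium. They received library compounds in DMSO by pin dosing, 11 threefold points from 47 μM to 0.79 nM. Luminescence with CellTiter-Glo One was read after 48 h at 37°C. Viability is stated per plate relative to DMSO wells, with cell-free wells as background.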

[2] = test system: NOMO1; assay: AUC of viability dose-response curve (% viability x log10 dose units); higher = less sensitive; conditions: 48 h
Procedure, shortened: (§2)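 Viability of medium-adapted leukemia cells was measured by CellTiter-Glo One luminescence after 48 h at 37°C with library compounds in DMSO. Doses were 11 threefold steps from 47 μM to 0.79 nM, in 1536-well plates at 500 or 1000 cells/well. Signals were normalised per plate to DMSO and cell-free wells and fitted with a four-parameter log-logistic model on log10 dose. Area under the curve was integrated by trapezoidal rule, with curves exceeding full viability scaled and failed quality-control curves removed.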

[3] = test system: P12-Ichikawa; assay: as above; conditions: 48 h
Procedure, shortened: as §2

[4] = test system: SEM cells; assay: as above; conditions: 48 h
Procedure, shortened: as §2

[5] = test system: P12-Ichikawa; assay: cell viability relative to DMSO control; higher = less cytotoxic; conditions: HPLM + 10% dialyzed FBS, 48 h
Procedure, shortened: as §1

[6] = test system: NOMO1; assay: as above; conditions: HPLM + 10% dialyzed FBS, 48 h
Procedure, shortened: as §1

C[C@@H]1O[C@@H](O[C@H]\2CC[C@]\3(C)[C@@H]4CC[C@]5(C)[C@@H](CC[C@@]5(O)[C@H]4CCC3=C2)C/6=C/OC(=O)/C=C6)[C@H](O)[C@H](O)[C@@H]1O
[1], HPLM + 10% dialyzed FBS
Conditions	cell viability [%]
0.000781 µM	124
0.00234 µM	121
0.00702 µM	109
0.0211 µM	79.3
0.0632 µM	11.6
0.19 µM	12.5
0.569 µM	9.21
1.71 µM	8.61
5.12 µM	8.87
15.4 µM	7.79
46.1 µM	4.4

AUC of viability dose-response curve
Conditions	[2]	[3]	[4]
HPLM + 10% dialyzed FBS	187	181	173
RPMI 5 mM glucose + 10% FBS	214	197	193
RPMI 5 mM glucose + 10% dialyzed FBS	193	173	186

CN(C)C(=O)COC(=O)Cc1ccc(OC(=O)c2ccc(NC(=N)N)cc2)cc1
Conditions	AUC of viability dose-response curve	cell viability [%]
[2], HPLM + 10% dialyzed FBS	426	–
[2], RPMI 5 mM glucose + 10% FBS	469	–
[2], RPMI 5 mM glucose + 10% dialyzed FBS	465	–
[3], HPLM + 10% dialyzed FBS	446	–
[3], RPMI 5 mM glucose + 10% FBS	462	–
[3], RPMI 5 mM glucose + 10% dialyzed FBS	437	–
[4], HPLM + 10% dialyzed FBS	465	–
[4], RPMI 5 mM glucose + 10% FBS	458	–
[4], RPMI 5 mM glucose + 10% dialyzed FBS	469	–
[5], 0.00234 µM	–	122
[5], 0.00702 µM	–	126
[5], 0.0211 µM	–	134
[5], 0.0632 µM	–	129
[5], 0.19 µM	–	135
[5], 0.569 µM	–	134
[5], 1.71 µM	–	126
[5], 5.12 µM	–	107
[5], 15.4 µM	–	98.4
[5], 46.1 µM	–	70.5

cell viability [%], [1]
Conditions	HPLM + 10% dialyzed FBS	RPMI 5 mM glucose + 10% FBS
0.000781 µM	107	102
0.00234 µM	113	110
0.00702 µM	122	126
0.0211 µM	112	117
0.0632 µM	125	130
0.19 µM	126	126
0.569 µM	119	139
1.71 µM	119	130
5.12 µM	112	114
15.4 µM	118	107
46.1 µM	61.2	61.7

COC(=O)C/1=C/O[C@@H](O)[C@H]\2[C@@H]1C\C=C2CO
[1], HPLM + 10% dialyzed FBS
Conditions	cell viability [%]
0.000781 µM	98.6
0.00234 µM	116
0.00702 µM	101
0.0211 µM	114
0.0632 µM	138
0.19 µM	114
0.569 µM	126
1.71 µM	112
5.12 µM	112
15.4 µM	104
46.1 µM	76.9

AUC of viability dose-response curve
Conditions	[2]	[3]	[4]
HPLM + 10% dialyzed FBS	472	469	465
RPMI 5 mM glucose + 10% FBS	461	466	462
RPMI 5 mM glucose + 10% dialyzed FBS	467	466	454

CN[C@@H]1CN(C[C@H]1OC)C2=NC3=C(C=C2)C(=O)C(=C\N3C4=NC=CS4)/C(O)=O
AUC of viability dose-response curve
Conditions	[2]	[3]	[4]
HPLM + 10% dialyzed FBS	454	426	396
RPMI 5 mM glucose + 10% FBS	455	386	347
RPMI 5 mM glucose + 10% dialyzed FBS	451	389	363

O=C(C1CCCCC1)N1CC(=O)N2CCc3ccccc3C2C1 (configuration not stated)
Conditions	AUC of viability dose-response curve	cell viability [%]
[2], HPLM + 10% dialyzed FBS	445	–
[2], RPMI 5 mM glucose + 10% FBS	466	–
[2], RPMI 5 mM glucose + 10% dialyzed FBS	452	–
[3], HPLM + 10% dialyzed FBS	386	–
[3], RPMI 5 mM glucose + 10% FBS	385	–
[3], RPMI 5 mM glucose + 10% dialyzed FBS	369	–
[4], HPLM + 10% dialyzed FBS	434	–
[4], RPMI 5 mM glucose + 10% FBS	407	–
[4], RPMI 5 mM glucose + 10% dialyzed FBS	406	–
[6], 0.000781 µM	–	106
[6], 0.00234 µM	–	147
[6], 0.00702 µM	–	125
[6], 0.0211 µM	–	125
[6], 0.0632 µM	–	126
[6], 0.19 µM	–	130
[6], 0.569 µM	–	140
[6], 1.71 µM	–	110
[6], 5.12 µM	–	108
[6], 15.4 µM	–	107
[6], 46.1 µM	–	114

cell viability [%], [1]
Conditions	HPLM + 10% dialyzed FBS	RPMI 5 mM glucose + 10% FBS	RPMI 5 mM glucose + 10% dialyzed FBS
0.000781 µM	90.6	99.9	106
0.00234 µM	98.8	109	110
0.00702 µM	117	126	147
0.0211 µM	108	105	99.1
0.0632 µM	113	116	133
0.19 µM	96	95.8	132
0.569 µM	97.1	91.6	103
1.71 µM	86.1	74.3	77.9
5.12 µM	78.2	66.7	75
15.4 µM	84.1	75.1	74.8
46.1 µM	75.8	78.4	73.1

CCCN[S+](=O)([O-])Nc1ncnc(OCCOc2ncc(Br)cn2)c1-c1ccc(Br)cc1
[1], HPLM + 10% dialyzed FBS
Conditions	cell viability [%]
0.000781 µM	125
0.00234 µM	120
0.00702 µM	123
0.0211 µM	120
0.0632 µM	123
0.19 µM	137
0.569 µM	123
1.71 µM	123
5.12 µM	124
15.4 µM	131
46.1 µM	88.8

AUC of viability dose-response curve
Conditions	[2]	[3]	[4]
HPLM + 10% dialyzed FBS	442	457	470
RPMI 5 mM glucose + 10% FBS	468	431	468
RPMI 5 mM glucose + 10% dialyzed FBS	468	452	429

Cl.O[C@@H](CNC[C@H](O)[C@H]1CCc2cc(F)ccc2O1)[C@@H]1CCc2cc(F)ccc2O1
AUC of viability dose-response curve
Conditions	[2]	[3]	[4]
HPLM + 10% dialyzed FBS	439	465	450
RPMI 5 mM glucose + 10% FBS	446	441	444
RPMI 5 mM glucose + 10% dialyzed FBS	415	448	455
